Experimental data reported in publication PMC6271338, “Synthesis and Cytotoxic Evaluation of Alkoxylated Chalcones” (Molecules, 2014).

Key:
HepG2 cells = experiment: In vitro anti-proliferative SRB assay, HepG2; format: cell-based, human; settings: for IC50: HepG2, increasing concentrations up to 30 μM, mean ± SD of at least three independent experiments; for SI (CC50 HMLE/IC50 HepG2) / SI (CC50 L02/IC50 HepG2): selectivity index; for SI (CC50 HMLE/IC50 HepG2): HMLE vs HepG2; for SI (CC50 L02/IC50 HepG2): L02 vs HepG2
Experimental: (§1) HepG2 and MCF7 cells were grown in the Eagle’s minimum essential medium with Earle’s balanced salts (MEM-EBSS) medium, HeLa, A549 and L02 cells were grown in Dulbecco’s Modified Eagle Media (DMEM), SW1990 cells were grown in RPMI-1640 medium, and HMLE cell were grown in DMEM/F-12 medium. […]
(§2) Cells were seeded into 96-well plates (4000 cells/well) and incubated at 37 °C in a humidified 5% CO2 atmosphere. After 24 h, the cells were treated with different concentrations of the compounds for 48 h in triplicate to generate dose-response curves. Cell viability was evaluated using the sulforhodamine B (SRB) assay as previous described.

HeLa cells = experiment: In vitro anti-proliferative SRB assay, HeLa; format: cell-based, human; settings: for IC50: Homo sapiens, HeLa, increasing concentrations up to 30 μM, mean ± SD of at least three independent experiments; for SI (CC50 HMLE/IC50 Hela) / SI (CC50 L02/IC50 Hela): selectivity index; for SI (CC50 HMLE/IC50 Hela): HMLE vs HeLa; for SI (CC50 L02/IC50 Hela): L02 vs HeLa
Experimental: as §1, §2

MCF-7 cells = experiment: In vitro anti-proliferative SRB assay, MCF-7; format: cell-based, human; settings: for IC50: Homo sapiens, MCF7, increasing concentrations up to 30 μM, mean ± SD of at least three independent experiments; for SI (CC50 HMLE/IC50 MCF7) / SI (CC50 L02/IC50 MCF7): selectivity index; for SI (CC50 HMLE/IC50 MCF7): HMLE vs MCF7; for SI (CC50 L02/IC50 MCF7): L02 vs MCF7
Experimental: as §1, §2

A549 cells = experiment: In vitro anti-proliferative SRB assay, A549; format: cell-based, human; settings: for IC50: Homo sapiens, A549, increasing concentrations up to 30 μM, mean ± SD of at least three independent experiments; for SI (CC50 HMLE/IC50 A549) / SI (CC50 L02/IC50 A549): selectivity index; for SI (CC50 HMLE/IC50 A549): HMLE vs A549; for SI (CC50 L02/IC50 A549): L02 vs A549
Experimental: as §1, §2

SW1990 cells = experiment: In vitro anti-proliferative SRB assay, SW1990; format: cell-based, human; settings: for IC50: Homo sapiens, SW1990, increasing concentrations up to 30 μM, mean ± SD of at least three independent experiments; for SI (CC50 HMLE/IC50 SW1990) / SI (CC50 L02/IC50 SW1990): selectivity index; for SI (CC50 HMLE/IC50 SW1990): HMLE vs SW1990; for SI (CC50 L02/IC50 SW1990): L02 vs SW1990
Experimental: as §1, §2

[1] = Cytotoxicity (SRB) against non-tumoral HMLE cells; format: cell-based, human; settings: human, HMLE cells (non-tumoral human mammary epithelial cells); increasing concentrations up to 100 μM; mean ± SD of at least three independent experiments; read-out: Normal Human Cell Lines, CC50, HMLE
Experimental: (§3) All compounds were also evaluated for their cytotoxic activity against two non-tumoral human cell lines named human mammary epithelial cell (HMLE) and L02 (a human liver cell line) in Table 2 and SI values between the CC50 in non-tumoral cell lines and IC50 in tumoral cells calculated.
as §1
as §2, with “described. […] Etoposide was used as the positive control.” for “described.”

[2] = Cytotoxicity (SRB) against non-tumoral L02 cells; format: cell-based, human; settings: human, L02 cells (non-tumoral human liver cell line); increasing concentrations up to 100 μM; mean ± SD of at least three independent experiments; read-out: Normal Human Cell Lines, CC50, L02
Experimental: as §3, §1
as §2, with “described. […] Etoposide was used as the positive control.” for “described.”

| SMILES | IC50 (HepG2 cells; Homo sapiens) | IC50 (HeLa cells) | IC50 (MCF-7 cells) | IC50 (A549 cells) | IC50 (SW1990 cells) | melting point | SI (CC50 HMLE/IC50 HepG2) (HepG2 cells) | SI (CC50 L02/IC50 HepG2) (HepG2 cells) | SI (CC50 HMLE/IC50 Hela) (HeLa cells) | SI (CC50 L02/IC50 Hela) (HeLa cells) | SI (CC50 HMLE/IC50 MCF7) (MCF-7 cells) | SI (CC50 L02/IC50 MCF7) (MCF-7 cells) | SI (CC50 HMLE/IC50 A549) (A549 cells) | SI (CC50 HMLE/IC50 SW1990) (SW1990 cells) | SI (CC50 L02/IC50 SW1990) (SW1990 cells) | CC50 at 48 h [1] | CC50 at 48 h [2] | SI (CC50 L02/IC50 A549) (A549 cells) | inhibition at 10 µM (HepG2 cells; Homo sapiens, HepG2 cells, 10 μM, SRB assay, mean ± SD of three independent experiments) |
| --- | --- | --- | --- | --- | --- | --- | --- | --- | --- | --- | --- | --- | --- | --- | --- | --- | --- | --- | --- |
| COc1cccc(OC)c1/C=C/C(=O)c1ccccc1C [b2, (E)-1-(2-Methylphenyl)-3-(2,6-dimethoxyphenyl)prop-2-en-1-one] | 14.1 ± 1.84 µM | 18.4 ± 0.75 µM | 19.1 ± 2.11 µM | 25.5 ± 4.14 µM | > 30 µM | 79.8 to 81.4 °C | 1.1 | 2.5 | 0.8 | 1.9 | 0.8 | 1.9 | 0.6 | <0.5 | <1.2 | 15 ± 0.78 µM | 35.9 ± 3.4 µM | 1.4 | – |
| COc1cc(C(=O)/C=C/c2c(OC)cccc2OC)ccc1OCc1ccccc1 [b15, (E)-1-(4-(Benzyloxy)-3-methoxyphenyl)-3-(2,6-dimethoxyphenyl)prop-2-en-1-one] | > 30 µM | > 30 µM | > 30 µM | > 30 µM | > 30 µM | 112.8 to 114.1 °C | – | – | – | – | – | – | – | – | – | > 100 µM | > 100 µM | – | – |
| COc1cccc(OC)c1/C=C/C(=O)c1cccc(OCc2ccccc2)c1 [b12, (E)-1-(3-(Benzyloxy)phenyl)-3-(2,6-dimethoxyphenyl)prop-2-en-1-one] | 23.6 ± 0.84 µM | 25.6 ± 1.16 µM | 29.03 ± 0.09 µM | 13.25 ± 0.02 µM | 22.3 ± 0.07 µM | 108.8 to 110.2 °C | 1.3 | >4.2 | 1.2 | >3.9 | 1.1 | >3.4 | 2.4 | 1.4 | – | 31.4 ± 1.12 µM | > 100 µM | – | – |
| COc1cccc(OC)c1/C=C/C(=O)c1ccc(C)cc1 [b4, (E)-1-(4-Methylphenyl)-3-(2,6-dimethoxyphenyl)prop-2-en-1-one] | 19.5 ± 1.28 µM | 18.6 ± 0.36 µM | 25.44 ± 0.15 µM | 22.1 ± 0.6 µM | > 30 µM | 82.7 to 84.5 °C | 0.7 | 3.1 | 0.7 | 3.2 | 0.5 | 2.3 | 0.6 | <0.5 | <2.0 | 13.8 ± 1.69 µM | 59.6 ± 5.56 µM | 2.7 | – |
| COc1cccc(OC)c1/C=C/C(=O)c1ccc(Cl)c(Cl)c1 [b38, (E)-1-(3,4-Dichlorophenyl)-3-(2,6-dimethoxyphenyl)prop-2-en-1-one] | 18.6 ± 1.24 µM | 17.6 ± 2.01 µM | 29.6 ± 2.13 µM | 27.6 ± 0.58 µM | 26.16 ± 0.08 µM | 142.1 to 143.4 °C | 1.5 | >5.4 | 1.6 | >5.7 | 1.0 | >3.4 | 1.0 | 1.1 | >3.8 | 28.3 ± 3.74 µM | > 100 µM | >3.6 | – |
| COc1cccc(OC)c1/C=C/C(=O)c1ccc(C)c(C)c1 [b5, (E)-1-(3,4-Dimethylphenyl)-3-(2,6-dimethoxyphenyl)prop-2-en-1-one] | 26.8 ± 0.3 µM | 20.3 ± 1.01 µM | 30.31 ± 0.29 µM | > 30 µM | > 30 µM | 98.9 to 101.1 °C | 0.6 | 0.9 | 0.8 | 1.2 | 0.5 | 0.8 | <0.5 | <0.5 | <0.8 | 15.7 ± 0.76 µM | 25.2 ± 2.71 µM | <0.8 | – |

Stronger by IC50 (HepG2 cells; Homo sapiens), values ahead:

| IC50 (HepG2 cells; Homo sapiens) | IC50 (HeLa cells) | IC50 (MCF-7 cells) | IC50 (A549 cells) | IC50 (SW1990 cells) | melting point | SMILES | SI (CC50 HMLE/IC50 HepG2) (HepG2 cells) | SI (CC50 L02/IC50 HepG2) (HepG2 cells) | SI (CC50 HMLE/IC50 Hela) (HeLa cells) | SI (CC50 L02/IC50 Hela) (HeLa cells) | SI (CC50 HMLE/IC50 MCF7) (MCF-7 cells) | SI (CC50 L02/IC50 MCF7) (MCF-7 cells) | SI (CC50 HMLE/IC50 A549) (A549 cells) | SI (CC50 HMLE/IC50 SW1990) (SW1990 cells) | SI (CC50 L02/IC50 SW1990) (SW1990 cells) | CC50 at 48 h [1] | CC50 at 48 h [2] | SI (CC50 L02/IC50 A549) (A549 cells) | inhibition at 10 µM (HepG2 cells; Homo sapiens, HepG2 cells, 10 μM, SRB assay, mean ± SD of three independent experiments) |
| --- | --- | --- | --- | --- | --- | --- | --- | --- | --- | --- | --- | --- | --- | --- | --- | --- | --- | --- | --- |
| 11.7 ± 0.18 µM | 15.7 ± 1.09 µM | 30.4 ± 0.71 µM | > 30 µM | 15.4 ± 0.83 µM | 111.1 to 112.7 °C | COc1cccc(OC)c1/C=C/C(=O)c1ccc(Cl)cc1Cl [b37, (E)-1-(2,4-Dichlorophenyl)-3-(2,6-dimethoxyphenyl)prop-2-en-1-one] | 1.7 | >8.5 | 1.3 | >6.4 | 0.7 | >3.3 | <0.7 | 1.3 | >6.5 | 19.8 ± 1.44 µM | > 100 µM | – | – |
| 6.97 ± 0.55 µM | 9.98 ± 0.37 µM | 6.37 ± 0.05 µM | 14 ± 0.19 µM | 15.6 µM | 93.5 to 95.6 °C | COc1cccc(C(=O)/C=C/c2c(OC)cccc2OC)c1 [b7, (E)-1-(3-Methoxyphenyl)-3-(2,6-dimethoxyphenyl)prop-2-en-1-one] | 1.2 | 2.6 | 0.8 | 1.8 | 1.3 | 2.8 | 0.6 | 0.5 | 1.2 | 8.14 ± 0.53 µM | 18.1 ± 5.82 µM | 1.3 | – |
| 9.2 ± 0.31 µM | 12.4 ± 0.34 µM | 23.1 ± 0.79 µM | 21.2 ± 0.55 µM | 17.8 ± 0.07 µM | 87.6 to 89.1 °C | COc1ccc(C(=O)/C=C/c2cc(OC)cc(OC)c2)cc1 [a16, (E)-1-(4-Methoxyphenyl)-3-(3,5-dimethoxyphenyl)prop-2-en-1-one] | 0.4 | 1.0 | 0.3 | 0.7 | 0.1 | 0.4 | 0.2 | 0.2 | 0.5 | 3.28 ± 0.31 µM | 8.87 ± 1.83 µM | 0.4 | 70.6 ± 2% |
| 11.3 ± 1.45 µM | 13.4 ± 0.44 µM | 23.3 ± 0.79 µM | 25 ± 3.17 µM | 17.1 ± 0.57 µM | 135.7 to 138.2 °C | COc1cccc(OC)c1/C=C/C(=O)c1cccc(Br)c1 [b36, (E)-1-(3-Bromophenyl)-3-(2,6-dimethoxyphenyl)prop-2-en-1-one] | 1.2 | 5.4 | 1.0 | 4.6 | 0.6 | 2.6 | 0.5 | 0.8 | 3.6 | 13.1 ± 1.21 µM | 61.2 ± 12.1 µM | 2.4 | – |
| 10.9 ± 0.46 µM | 14.4 ± 0.15 µM | 19.8 ± 0.69 µM | 22.7 ± 0.57 µM | 19.5 ± 0.23 µM | 99 to 101.2 °C | CCOc1ccc(C(=O)/C=C/c2c(OC)cccc2OC)cc1 [b10, (E)-1-(4-Ethoxyphenyl)-3-(2,6-dimethoxyphenyl)prop-2-en-1-one] | 1.3 | 3.4 | 1.0 | 2.6 | 0.7 | 1.9 | 0.6 | 0.7 | 1.9 | 13.8 ± 3.77 µM | 36.7 ± 3.41 µM | 1.6 | – |
